Test results taken from patent US20260022246A1, “COLORING AGENT COMPOSITION, FILM, OPTICAL FILTER, AND NEAR INFRARED ABSORBING COMPOUND” (FUJIFILM Corporation, priority 2023, published 2026).

How the values were obtained:
Assay type in all cases: physicochemical
[1] = Evaluation of heat stability of polystyrene resin film (hot plate 180° C., 5 minutes); set-up: key to Heat stability of resin composition: absorbance reduction rate of Amax was less than 5%; B: absorbance reduction rate of Amax was 5% or more and less than 10%; C: absorbance reduction rate of Amax was 10% or more and less than 50%; D: absorbance reduction rate of Amax was 50% or more; X: solubility was insufficient, so that the film cannot be produced, which was not evaluable; settings: for Heat stability of resin composition: polystyrene resin film on glass, hot plate 180° C. for 5 minutes, absorbance reduction rate at λmax
Protocol: 30 mg of each of Exemplary Compounds and the comparative compounds described in the tables was dissolved in 8.9 g of methyl ethyl ketone and 1.1 g of a polystyrene resin (manufactured by Sigma-Aldrich Co. LLC) to prepare a resin composition.
The obtained resin composition was spin-coated on a glass substrate to form a coating film, and the obtained coating film was dried at 60° C. for 2 minutes to produce a resin film. […]
• A: absorbance reduction rate of Amax was less than 5%. • B: absorbance reduction rate of Amax was 5% or more and less than 10%. • C: absorbance reduction rate of Amax was 10% or more and less than 50%. • D: absorbance reduction rate of Amax was 50% or more. • X: solubility was insufficient, so that the film cannot be produced, which was not evaluable.

[2] = Evaluation of solubility in methyl ethyl ketone (MEK); set-up: key to Solubility in solvent: A: 1 g or more of the compound was stably dissolved in 300 g of MEK; B: 1 g was not dissolved in 300 g of MEK; X: decomposition was observed by measuring the absorption spectrum after the dissolution; settings: for Solubility in solvent: stirred at room temperature for 30 minutes
Protocol: For each of Exemplary Compounds shown in Tables 1 and 2, a predetermined amount of the compound was added to a solvent of methyl ethyl ketone (MEK), and solubility was evaluated according to the following standard by stirring the mixture at room temperature for 30 minutes.
• A: 1 g or more of the compound was stably dissolved in 300 g of MEK. • B: 1 g was not dissolved in 300 g of MEK. • X: decomposition was observed by measuring the absorption spectrum after the dissolution.

[3] = Evaluation of absorption spectrum (maximal absorption wavelength in chloroform solution); settings: for λmax (maximal absorption wavelength): chloroform solution, 3.0×10^−5 mol/L, 1 mm quartz cell; for Near infrared absorbing property: grade of λmax in chloroform solution
Protocol: The specific compound is diluted with chloroform to a concentration of […], and an absorbance of the obtained sample solution is measured with a spectrophotometer (UV-3600 Plus, manufactured by Shimadzu Corporation) using a 1 mm quartz cell. A maximal absorption wavelength (Amax) is measured from an absorption spectrum of the sample solution.
For each of Exemplary Compounds shown in Tables 1 and 2, a sample solution was prepared by diluting the compound with chloroform to a concentration of 3.0×10^−5 mol/L, and near infrared absorbability was evaluated.
For each sample solution, an absorbance was measured in a 1 mm quartz cell using a spectrophotometer (UV-3600 Plus, manufactured by Shimadzu Corporation).
A maximal absorption wavelength (Amax) was measured from the absorption spectrum of each sample solution. The results are shown in Tables 1 and 2, and the wavelength of Amax was evaluated according to the following standard.
• A: Amax was 1,150 nm or more. • B: Amax was less than 1,150 nm.

[4] = Evaluation of kneading: transmittance at 1,150 nm of melt-kneaded resin film; settings: kneaded with resin under the thermal conditions
Protocol: A resin composition, which was a kneaded material of the specific compound or the comparative compound and a resin, was prepared, and the following kneading evaluation was performed.
The specific compounds and comparative compounds shown in Table 3 below were weighed in the contents shown in Table 3, and a sample obtained by shaking and mixing 12.0 g of the resin shown in Table 3 was prepared. A polycarbonate resin (indicated as Polycarbonate in Table 3), a polystyrene resin, and an acrylic resin were used as the resin. In Table 3, the polycarbonate resin is indicated as Polycarbonate, the polystyrene resin is indicated as Polystyrene, and the acrylic resin is indicated as Acrylic.
The obtained sample was put into a supply port of a biaxial kneader (Labo Plastomill, manufactured by Toyo Seiki Seisaku-sho, Ltd.) and subjected to melt-kneading to obtain a resin composition as a kneaded material. The obtained resin composition was pressed using a heat press machine to obtain a resin film having a thickness of 0.15 mm.
In a case where a polycarbonate resin (SD PORYCA (registered trademark) 301-10, manufactured by Sumika Polycarbonate Co., Ltd.) was used as the resin, the melt-kneading temperature was set to 260° C. and the hot press temperature was set to 230° C.
In a case where a polystyrene resin (manufactured by Sigma-Aldrich Co. LLC) was used as the resin, the melt-kneading temperature was set to 200° C. and the hot press temperature was set to 180° C.
In a case where an acrylic resin (G1000, manufactured by Kuraray Co., Ltd.) was used as the resin, the melt-kneading temperature was set to 180° C. and the hot press temperature was set to 160° C.
A transmittance of the obtained resin film at a wavelength of 1,150 nm was measured with a spectrophotometer, and the measured value was evaluated according to the following standard. In Table 3, it is described in “Evaluation of transmittance at wavelength of 1150 nm”. As the transmittance is lower, the near infrared blocking property is better. […]

Compound	heat stability of the resin composition (in words) ([1]; polystyrene resin film)	Heat stability of resin composition [1]	absorbance at the maximal absorption wavelength on heating ([1]; resin film, heating at 130° C. as printed)	solubility in a solvent (in words) [2]	Solubility in solvent [2]	λmax (maximal absorption wavelength) [3] [nm]	Near infrared absorbing property [3]	heat stability (in words, kneading evaluation) [4]	stability after dissolving in a solvent (measurement of the absorption spectrum) [2]
CCCCN(CCCC)c1ccc([N+](=C2C=CC(=[N+](c3ccc(N(CCCC)CCCC)cc3)c3ccc(N(CCCC)CCCC)cc3)C=C2)c2ccc(N(CCCC)CCCC)cc2)cc1.[F][Sb-]([F])([F])([F])([F])[F].[F][Sb-]([F])([F])([F])([F])[F] [Comparative compound 4, reference compound]	low	D (absorbance reduction rate of Amax was 50% or more)	significantly reduced	favorable	A (1 g or more of the compound was stably dissolved in 300 g of MEK)	1100	B (Amax was less than 1,150 nm)	low	
Cc1ccc(N(c2ccc(C)cc2)c2ccc([N+](=C3C=CC(=[N+](c4ccc(N(c5ccc(C)cc5)c5ccc(C)cc5)cc4)c4ccc(N(c5ccc(C)cc5)c5ccc(C)cc5)cc4)C=C3)c3ccc(N(c4ccc(C)cc4)c4ccc(C)cc4)cc3)cc2)cc1 [Comparative compound 2, reference compound]		D (absorbance reduction rate of Amax was 50% or more)			X	1250	A (Amax was 1,150 nm or more)	low	decomposed
COC(=O)c1cccc(N(c2ccc([N+](=C3C=CC(=[N+](c4ccc(N(c5cccc(C(=O)OC)c5)c5cccc(C(=O)OC)c5)cc4)c4ccc(N(c5cccc(C(=O)OC)c5)c5cccc(C(=O)OC)c5)cc4)C=C3)c3ccc(N(c4cccc(C(=O)OC)c4)c4cccc(C(=O)OC)c4)cc3)cc2)c2cccc(C(=O)OC)c2)c1.[O-][Cl+3]([O-])([O-])[O-].[O-][Cl+3]([O-])([O-])[O-] [A-26]		A (absorbance reduction rate of Amax was less than 5%)			A (1 g or more of the compound was stably dissolved in 300 g of MEK)	1232	A (Amax was 1,150 nm or more)		
Cc1ccc(N(c2ccc(C)cc2)c2ccc([N+](=C3C=CC(=[N+](c4ccc(N(c5ccc(C)cc5)c5ccc(C)cc5)cc4)c4ccc(N(c5ccc(C)cc5)c5ccc(C)cc5)cc4)C=C3)c3ccc(N(c4ccc(C)cc4)c4ccc(C)cc4)cc3)cc2)cc1 [A-1]		A (absorbance reduction rate of Amax was less than 5%)			A (1 g or more of the compound was stably dissolved in 300 g of MEK)		A (Amax was 1,150 nm or more)		
C1=CC(=[N+](c2ccc(N(c3ccccc3)c3ccccc3)cc2)c2ccc(N(c3ccccc3)c3ccccc3)cc2)C=CC1=[N+](c1ccc(N(c2ccccc2)c2ccccc2)cc1)c1ccc(N(c2ccccc2)c2ccccc2)cc1 [Comparative compound 1, reference compound]		X		inferior	B (1 g was not dissolved in 300 g of MEK)	1230	A (Amax was 1,150 nm or more)		
Cc1ccc(N(c2ccc(C)cc2)c2ccc([N+](=C3C=CC(=[N+](c4ccc(N(c5ccc(C)cc5)c5ccc(C)cc5)cc4)c4ccc(N(c5ccc(C)cc5)c5ccc(C)cc5)cc4)C=C3)c3ccc(N(c4ccc(C)cc4)c4ccc(C)cc4)cc3)cc2)cc1.O=S(=O)([C-](S(=O)(=O)C(F)(F)F)S(=O)(=O)C(F)(F)F)C(F)(F)F.O=S(=O)([C-](S(=O)(=O)C(F)(F)F)S(=O)(=O)C(F)(F)F)C(F)(F)F [A-34]		A (absorbance reduction rate of Amax was less than 5%)			A (1 g or more of the compound was stably dissolved in 300 g of MEK)	1211	A (Amax was 1,150 nm or more)		
CCCCN(CCCC)c1ccc(N(c2ccc(N(CCCC)CCCC)cc2)c2ccc([N+](=C3C=CC(=[N+](c4ccc(N(c5ccc(N(CCCC)CCCC)cc5)c5ccc(N(CCCC)CCCC)cc5)cc4)c4ccc(N(c5ccc(N(CCCC)CCCC)cc5)c5ccc(N(CCCC)CCCC)cc5)cc4)C=C3)c3ccc(N(c4ccc(N(CCCC)CCCC)cc4)c4ccc(N(CCCC)CCCC)cc4)cc3)cc2)cc1.[F][Sb-]([F])([F])([F])([F])[F].[F][Sb-]([F])([F])([F])([F])[F] [Comparative compound 3, reference compound]		D (absorbance reduction rate of Amax was 50% or more)			X	1051	B (Amax was less than 1,150 nm)	low	decomposed
